The test system of experiment [1] is cultured human mast cells (CHMC), IgE-induced degranulation. The experiment is described as follows: CHMC low cell density IgE activation: tryptase assay. Format: cell-based. The gist of the method: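 Tryptase release read fluorogenically (30 min, room temperature) from supernatants of anti-IgE-challenged cultured human mucosal mast cells derived from umbilical cord CD34+ cells, at low density of 1000–1500 cells/well.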

Experiment [2] concerns cultured human mast cells (CHMC), ionomycin-induced degranulation. The experiment is described as follows: CHMC low cell density ionomycin activation: tryptase assay. The experiment is classed as cell-based. The note with it: ionomycin activation, 3pt, read-out: LD Tryptase, CHMC, Iono, 3pt.
Where [3] appears, read: low cell density CHMC, 3pt, read-out: LD Tryptase, CHMC, IgE, 3pt.
Where [4] appears, read: low cell density CHMC, 8pt, read-out: LD Tryptase, CHMC, IgE, 8pt.
Setting [5] is: CHMC low cell density, 3pt, read-out: LD Tryptase, CHMC, IgE, 3pt.
Setting [6] is: CHMC low cell density, 8pt, read-out: LD Tryptase, CHMC, IgE, 8pt.

Where two headings read alike, the source gives them in different places.

The values that follow come from patent publication US7560466B2, “Methods of treating or preventing autoimmune diseases with 2,4-pyrimidinediamine compounds” (Rigel Pharmaceuticals, Inc., priority 2003, dated 2009).

Regarding `Fc1cnc(Nc2ccc(-c3cnco3)cc2)nc1Nc1ccc2c(c1)NCCO2` [Compound 222, N4-(3,4-Dihydro-2H,4H-Benz[1,4]oxazin-6-yl)-5-fluoro-N2-[4-(oxazol-5-yl)phenyl]-2,4-pyrimidinediamine], the figures for the IC50 in experiment [1] (setting [3]), in experiment [1] (setting [4]) and in experiment [2] (low cell density CHMC) were under 10 µM, under 10 µM and over 10 µM, respectively.
Turning to `CC1(C)COc2ccc(Nc3nc(Nc4ccc(-c5cnco5)cc4)ncc3F)cc2N1` [Compound 223, N4-(3,4-Dihydro-3,3-dimethyl-2H,4H-benz[1,4]oxazin-6-yl)-5-fluoro-N2-[4-(oxazol-5-yl)phenyl]-2,4-pyrimidinediamine], the IC50 in experiment [1] (setting [3]) is under 10 µM; in experiment [1] (setting [4]), under 10 µM; in experiment [2] (low cell density CHMC), over 10 µM.
As to `C[C@@H]1Oc2ccc(Nc3nc(Nc4ccc(-c5cnco5)cc4)ncc3F)cc2NC1=O` [Compound 225], the IC50 in experiment [1] (setting [3]) was under 10 µM; in experiment [1] (setting [4]) it was under 10 µM; in experiment [2] (low cell density CHMC), over 10 µM.
Turning to `Fc1cnc(Nc2cccc(-c3cnco3)c2)nc1Nc1ccc2c(c1)NCCO2` [Compound 232, N4-(3,4-Dihydro-2H,4H-benz[1,4]oxazin-6-yl)-5-fluoro-N2-[3-(oxazol-5-yl)phenyl]-2,4-pyrimidinediamine], the IC50 in experiment [1] (setting [3]) is under 10 µM; in experiment [1] (setting [4]), under 10 µM; in experiment [2] (low cell density CHMC), over 10 µM.
As to `CC1(C)COc2ccc(Nc3nc(Nc4cccc(-c5cnco5)c4)ncc3F)cc2N1` [Compound 233, N4-(3,4-Dihydro-3,3-dimethyl-2H,4H-benz[1,4]oxazin-6-yl)-5-fluoro-N2-[3-(oxazol-5-yl)phenyl]-2,4-pyrimidinediamine], the IC50 in experiment [1] (setting [3]) is under 10 µM; in experiment [1] (setting [4]), under 10 µM; in experiment [2] (low cell density CHMC), over 10 µM.
`CC1(C)COc2ccc(Nc3nc(Nc4ccc(-c5ncco5)cc4)ncc3F)cc2N1` [Compound 238, N4-(3,4-Dihydro-3,3-dimethyl-2H,4H-benz[1,4]oxazin-6-yl)-5-fluoro-N2-[4-(oxazol-2-yl)phenyl]-2,4-pyrimidinediamine]: the IC50 is under 10 µM in experiment [1] (setting [3]), under 10 µM in experiment [1] (setting [4]) and over 10 µM in experiment [2] (low cell density CHMC).
`CN1CCOc2ccc(Nc3nc(Nc4ccc(-c5ncco5)cc4)ncc3F)cc21` [Compound 243, N4-(2,3-Dihydro-4-methyl-2H-benz[1,4]oxazin-6-yl)-5-fluoro-N2-[4-(oxazol-2-yl)phenyl]-2,4-pyrimidinediamine]: the IC50 was under 10 µM in experiment [1] (setting [3]), under 10 µM in experiment [1] (setting [4]) and over 10 µM in experiment [2] (low cell density CHMC).
On to `COc1cc(Nc2ncc(F)c(Nc3ccc4c(c3)NCC(CCO)O4)n2)cc(OC)c1` (centres unmarked) [Compound 253, N4-[3,4-Dihydro-2-(2-hydroxyethyl)-2H,4H-benz[1,4]oxazin-6-yl]-N2-(3,5-dimethoxyphenyl)-5-fluoro-2,4-pyrimidinediamine], for which the IC50 is under 10 µM in experiment [1] (setting [3]), under 10 µM in experiment [1] (setting [4]) and over 10 µM in experiment [2] (low cell density CHMC).
Turning to `CNC(=O)COc1cccc(Nc2ncc(F)c(Nc3ccc4c(c3)NC(=O)CS4)n2)c1` [Compound 254, 5-Fluoro-N2-[3-(N-methylamino)carbonylmethyleneoxyphenyl]-N4-(3-oxo-2H,4H-benzo[1,4]thiazin-6-yl)-2,4-pyrimidinediamine], the IC50 was under 10 µM in experiment [1] (setting [3]), under 10 µM in experiment [1] (setting [4]) and over 10 µM in experiment [2] (low cell density CHMC).
In the case of `Cc1cc(C)cc(Nc2ncc(F)c(Nc3ccc4c(c3)NCC(CCO)O4)n2)c1` (centres unmarked) [Compound 255, N4-[2,3-Dihydro-2-(2-hydroxyethyl)-2H,4H-benz[1,4]oxazin-6-yl]-N2-(3,5-dimethylphenyl)-5-fluoro-2,4-pyrimidinediamine], the figures for the IC50 in experiment [1] (setting [3]), in experiment [1] (setting [4]) and in experiment [2] (low cell density CHMC) were under 10 µM, under 10 µM and over 10 µM, respectively.
Consider `CNC(=O)COc1cccc(Nc2ncc(F)c(Nc3ccc4c(c3)NCCS4)n2)c1` [Compound 258, N4-(3,4-Dihydro-2H,4H-benzo[1,4]thiazin-6-yl)-5-fluoro-N2-[3-(N-methylamino)carbonylmethyleneoxyphenyl]-2,4-pyrimidinediamine], for which the IC50 is under 10 µM in experiment [1] (setting [3]), under 10 µM in experiment [1] (setting [4]) and over 10 µM in experiment [2] (low cell density CHMC).
Turning to `CNC(=O)COc1cccc(Nc2ncc(F)c(Nc3ccc4c(c3)N(C)C(=O)CS4)n2)c1` [Compound 259, 5-Fluoro-N2-[3-(N-methylamino)carbonylmethyleneoxyphenyl]-N4-(4-methyl-3-oxo-2H-benzo[1,4]thiazin-6-yl)-2,4-pyrimidinediamine], the values for the IC50 in experiment [1] (setting [3]), in experiment [1] (setting [4]) and in experiment [2] (low cell density CHMC) were under 10 µM, under 10 µM and over 10 µM, respectively.
As to `NC(=S)c1cccc(Nc2ncc(F)c(Nc3ccc4c(c3)NC(=O)CO4)n2)c1` [Compound 261, N2-(3-Benzothioamide)-5-fluoro-N4-(3-oxo-2H,4H-benz[1,4]oxazin-6-yl)-2,4-pyrimidinediamine], the IC50 is under 10 µM in experiment [1] (setting [3]) and over 10 µM in experiment [2] (low cell density CHMC).
`NC(=S)c1cccc(Nc2ncc(F)c(Nc3ccc4c(c3)NC(=O)C(CCO)O4)n2)c1` (centres unmarked) [Compound 262, N2-(3-Benzothioamide)-5-fluoro-N4-[2-(2-hydroxyethyl)-3-oxo-2H,4H-benz[1,4]oxazin-6-yl]-2,4-pyrimidinediamine]: the values for the IC50 in experiment [1] (setting [3]) and in experiment [2] (low cell density CHMC) were under 10 µM and over 10 µM, respectively.
As for `CNC(=O)COc1cccc(Nc2ncc(F)c(N(C)c3ccc4c(c3)OCCO4)n2)c1` [Compound 385, N4-(3,4-Ethylenedioxyphenyl)-5-fluoro-N4-methyl-N2-[3-(N-methylamino)carbonylmethyleneoxyphenyl]-2,4-pyrimidinediamine], the IC50 in experiment [1] (setting [5]) is under 10 µM; in experiment [1] (setting [6]) it was under 10 µM; in experiment [2] (CHMC low cell density), over 10 µM.
On to `CC(=O)N1CCN(c2cccc(Nc3ncc(F)c(Nc4ccc5c(c4)OC(F)(F)C(F)(F)O5)n3)c2)CC1` [Compound 431], for which the results for the IC50 in experiment [1] (setting [5]), in experiment [1] (setting [6]) and in experiment [2] (CHMC low cell density) were under 10 µM, under 10 µM and over 10 µM, respectively.
Turning to `CC(=O)N1CCN(c2ccc(Nc3ncc(F)c(Nc4ccc5c(c4)OC(F)(F)C(F)(F)O5)n3)cc2)CC1` [Compound 432], the IC50 in experiment [1] (setting [5]) is under 10 µM; in experiment [2] (CHMC low cell density), over 10 µM.
The corresponding values for `CNC(=O)COc1cccc(Nc2ncc(F)c(N(CC(=O)OC)c3ccc4c(c3)OCCO4)n2)c1` [Compound 446, N4-(3,4-Ethylenedioxyphenyl)-5-fluoro-N4-(methoxycarbonylmethyl)-N2-[3-(N-methylamino)carbonylmethyleneoxyphenyl]-2,4-pyrimidinediamine] are under 10 µM and over 10 µM.
The corresponding values for `CNC(=O)c1cc(Nc2ncc(F)c(N(C)c3ccc4c(c3)OCCO4)n2)ccc1Cl` [Compound 453, N2-[4-Chloro-3-(N-methylamino)carbonylphenyl]-N4-(3,4-ethylenedioxyphenyl)-5-fluoro-N4-methyl-4-pyrimidinediamine] are under 10 µM and over 10 µM.
With `CN(C)c1ncc(F)c(N(C)c2ccc3c(c2)OCCO3)n1` [Compound 462, N2-Dimethyl-N4-(3,4-ethylenedioxyphenyl)-5-fluoro-N4-methyl-2,4-pyrimidinediamine], the IC50 in experiment [1] (setting [5]) and in experiment [2] (CHMC low cell density) was over 10 µM throughout.
Take `CNS(=O)(=O)c1ccc(Nc2ncc(F)c(Nc3ccc4c(c3)NC(=O)C(C)(C)O4)n2)cc1OC` [Compound 496, N4-(2,2-Dimethyl-3-oxo-4H-benz[1,4]oxazin-6-yl)-5-fluoro-N2-[3-methoxyphenyl-4-(methylamino)sulfonyl]-2,4-pyrimidinediamine]: the IC50 in experiment [1] (setting [5]), in experiment [1] (setting [6]) and in experiment [2] (CHMC low cell density) was under 10 µM each time.
As to `CNC(=O)COc1c(C)cc(Nc2ncc(F)c(N(C)c3ccc4c(c3)OCCO4)n2)cc1C` [Compound 635, N2-[3,5-Dimethyl-4-(N-methylamino)carbonylmethyleneoxyphenyl]-N4-(3,4-ethylenedioxyphenyl)-5-fluoro-N4-methyl-2,4-pyrimidinediamine], the IC50 in experiment [1] (setting [5]), in experiment [1] (setting [6]) and in experiment [2] (CHMC low cell density) was under 10 µM in each case.
As to `CNC(=O)COc1c(C)cc(Nc2ncc(F)c(N(C)c3ccc4c(c3)OC(F)(F)C(F)(F)O4)n2)cc1C` [Compound 636, N2-[3,5-Dimethyl-4-(N-methylamino)carbonylmethyleneoxyphenyl]-5-fluoro-N4-methyl-N4-[3,4-(tetrafluoroethylenedioxy)phenyl]-2,4-pyrimidinediamine], the IC50 in experiment [1] (setting [5]), in experiment [1] (setting [6]) and in experiment [2] (CHMC low cell density) was under 10 µM each time.
Take `CNC(=O)COc1c(C)cc(Nc2ncc(F)c(Nc3ccc4c(c3)OC(F)(F)C(F)(F)O4)n2)cc1C` [Compound 637, N2-[3,5-Dimethyl-4-(N-methylamino)carbonylmethyleneoxyphenyl]-5-fluoro-N4-[3,4-(tetrafluoroethylenedioxy)phenyl]-2,4-pyrimidinediamine]: the IC50 is under 10 µM in experiment [1] (setting [5]) and over 10 µM in experiment [2] (CHMC low cell density).
Turning to `COC(=O)Cn1ccc2ccc(Nc3ncc(F)c(Nc4ccc5c(c4)NC(=O)C(C)(C)O5)n3)cc21` [Compound 639, N4-(2,2-Dimethyl-3-oxo-4H-benz[1,4]oxazin-6-yl)-5-fluoro-N2-[1-(methoxycarbonylmethylene)indol-6-yl]-2,4-pyrimidinediamine], the IC50 was under 10 µM in experiment [1] (setting [5]), under 10 µM in experiment [1] (setting [6]) and over 10 µM in experiment [2] (CHMC low cell density).
Regarding `COC(=O)Cn1ccc2ccc(Nc3ncc(F)c(Nc4ccc5c(c4)OCCO5)n3)cc21` [Compound 642, N4-(3,4-Ethylenedioxyphenyl)-5-fluoro-N2-[1-(methoxycarbonylmethylene)indol-6-yl]-2,4-pyrimidinediamine], the IC50 in experiment [1] (setting [5]) is under 10 µM; in experiment [1] (setting [6]) it was under 10 µM; in experiment [2] (CHMC low cell density) it was over 10 µM.
